This is an account of results in US20260217697A1, “COMPOUNDS COMPRISING HETEROARYL RINGS AND COMPOSITIONS AND METHODS THEREOF” (lonGen Therapeutics Co., Ltd., priority 2022, published 2026).

The structures appear in SMILES notation.

The experiment concerns the target T1, hTRPV3 (Homo sapiens, UniProt Q8NET8).
T1 construct: The commercially available plasmid with the full-length cDNA of hTRPV3 (791 aa) (NM_001258205.2); host or cells: HEK293T
T1 sequence (Q8NET8 1-791 isoform Q8NET8-2): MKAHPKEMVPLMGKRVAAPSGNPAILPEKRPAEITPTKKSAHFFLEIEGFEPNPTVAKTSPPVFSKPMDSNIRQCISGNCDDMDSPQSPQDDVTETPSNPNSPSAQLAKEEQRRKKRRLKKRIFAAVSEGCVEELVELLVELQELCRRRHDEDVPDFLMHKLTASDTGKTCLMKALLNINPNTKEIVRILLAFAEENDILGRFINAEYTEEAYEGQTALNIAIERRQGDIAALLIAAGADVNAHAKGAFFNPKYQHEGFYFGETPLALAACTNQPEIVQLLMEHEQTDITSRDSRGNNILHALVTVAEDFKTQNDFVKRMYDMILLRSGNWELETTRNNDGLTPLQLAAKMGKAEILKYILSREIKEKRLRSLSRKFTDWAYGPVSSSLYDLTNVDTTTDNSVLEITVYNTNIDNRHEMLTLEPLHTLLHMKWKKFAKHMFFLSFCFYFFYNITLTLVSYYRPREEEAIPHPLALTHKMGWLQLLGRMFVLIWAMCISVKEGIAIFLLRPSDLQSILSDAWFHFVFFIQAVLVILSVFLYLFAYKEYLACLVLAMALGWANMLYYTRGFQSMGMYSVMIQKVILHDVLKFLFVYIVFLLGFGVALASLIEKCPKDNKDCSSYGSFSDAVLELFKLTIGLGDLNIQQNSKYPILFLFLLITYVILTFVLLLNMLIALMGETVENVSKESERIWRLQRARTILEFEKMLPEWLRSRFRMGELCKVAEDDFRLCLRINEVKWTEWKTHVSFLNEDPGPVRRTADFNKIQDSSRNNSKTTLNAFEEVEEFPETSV
Briefly: Whole-cell patch-clamp recording of hTRPV3 current in transfected HEK293T cells (2-APB induced). The experiment is classed as cell-based. Conditions: current induced by 300 μM 2-APB, compounds tested up to 10 μM, room temperature. An outline of the steps:
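HEK293T cells transiently expressing full-length hTRPV3, recorded by whole-cell patch clamp 18 h post-transfection at room temperature, with 130 mM NaCl/0.3 mM EDTA/3 mM HEPES pH 7.4 on both sides. Holding potential 0 mV; 400-ms steps to +80 and −80 mV every 2 s. Block of 2-APB-evoked current, tested up to 10 μM, fitted to Hill equation for IC50.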
For orientation: In patch-clamp work, channel activity is measured electrically.
As for `COc1ncnc(OC)c1C(=O)Nc1nc2c(s1)C1(CCC(C(=O)OC(C)C)CC1)Oc1cc(C(F)(F)F)ccc1-2` (stereo not shown) [compound 123, isopropyl 2-(4,6-dimethoxypyrimidine-5-carboxamido)-7-(trifluoromethyl)spiro[chromeno[4,3-d]thiazole-4,1′-cyclohexane]-4′-carboxylate], the IC50 is less than 0.1 µM. On to `CCC1(CC)Oc2cc(C)ccc2-c2nc(NC(=O)c3c(OC)ncnc3OC)sc21` [compound 124, N-(4,4-diethyl-7-methyl-4H-chromeno[4,3-d]thiazol-2-yl)-4,6-dimethoxypyrimidine-5-carboxamide], for which the IC50 was in the range of 0.1 to 1 µM. Regarding `COc1ncnc(OC)c1C(=O)Nc1nc2c(s1)C1(CCC(C(=O)NC(C)C)CC1)Oc1cc(C(F)(F)F)ccc1-2` (stereo not shown) [compound 125, 2-(4,6-dimethoxypyrimidine-5-carboxamido)-N-isopropyl-7-(trifluoromethyl)spiro[chromeno[4,3-d]thiazole-4,1′-cyclohexane]-4′-carboxamide], the 50% inhibitory concentration (IC50) was 1 to 10 µM. In turn, `COc1ncnc(OC)c1C(=O)Nc1nc2c(s1)C1(CCC(C(=O)N(C)Cc3ccccc3)CC1)Oc1cc(C(F)(F)F)ccc1-2` (stereo not shown) [compound 126, N-benzyl-2-(4,6-dimethoxypyrimidine-5-carboxamido)-N-methyl-7-(trifluoromethyl)spiro[chromeno[4,3-d]thiazole-4,1′-cyclohexane]-4′-carboxamide] yielded a concentration for half-maximal inhibition (IC50) of 0.1 to 1 µM. `COc1ncnc(OC)c1C(=O)Nc1nc2c(s1)C1(CCC(C(=O)N(C)C(C)C)CC1)Oc1cc(C(F)(F)F)ccc1-2` (stereo not shown) [compound 127, 2-(4,6-dimethoxypyrimidine-5-carboxamido)-N-isopropyl-N-methyl-7-(trifluoromethyl)spiro[chromeno[4,3-d]thiazole-4,1′-cyclohexane]-4′-carboxamide] gave an IC50 of 0.1 to 1 µM.

`CCOC(=O)[C@H]1CC[C@]2(CC1)Oc1cc(Br)ccc1-c1nc(NC(=O)c3c(OC)ncnc3OC)sc12` [compound 128] yielded a half-inhibitory concentration (IC50) of 0.1 to 1 µM.

Regarding `CCOC(=O)[C@H]1CC[C@@]2(CC1)Oc1cc(Br)ccc1-c1nc(NC(=O)c3c(OC)ncnc3OC)sc12` [compound 129], the half-inhibitory concentration (IC50) lay in the range of 0.1 to 1 µM. Take `CCOC(=O)[C@H]1CC[C@@]2(CC1)Oc1cc(C(C)C)ccc1-c1nc(NC(=O)c3c(OC)ncnc3OC)sc12` [compound 130]: the IC50 is 1 to 10 µM. `COc1ncnc(OC)c1C(=O)Nc1nc2c(s1)C1(CC(NC(=O)OC(C)(C)C)C1)Oc1cc(C(F)(F)F)ccc1-2` (stereo not shown) [compound 131, tert-butyl(2-(4,6-dimethoxypyrimidine-5-carboxamido)-7-(trifluoromethyl)spiro[chromeno[4,3-d]thiazole-4,1′-cyclobutan]-3′-yl)carbamate]: the IC50 is 0.1 to 1 µM. Regarding `COc1ncnc(OC)c1C(=O)Nc1nc2c(s1)C1(CN(C(=O)OC(C)(C)C)C1)Oc1cc(C(C)C)ccc1-2` [compound 132, tert-butyl 2′-(4,6-dimethoxypyrimidine-5-carboxamido)-7′-isopropylspiro[azetidine-3,4′-chromeno[4,3-d]thiazole]-1-carboxylate], the IC50 was in the range of 0.1 to 1 µM.

As for `CCOC(=O)C1CC2(C1)Oc1cc(C(F)(F)F)ccc1-c1nc(NC(=O)c3c(OC)ncnc3OC)sc12` (stereo not shown) [compound 133, ethyl 2-(4,6-dimethoxypyrimidine-5-carboxamido)-7-(trifluoromethyl)spiro[chromeno[4,3-d]thiazole-4,1′-cyclobutane]-3′-carboxylate], the concentration for half-maximal inhibition (IC50) was less than 0.1 µM. Consider `COc1ncnc(OC)c1C(=O)Nc1nc2c(s1)C1(COC1)Oc1cc(Br)ccc1-2` [compound 134, N-(7-bromospiro[chromeno[4,3-d]thiazole-4,3′-oxetan]-2-yl)-4,6-dimethoxypyrimidine-5-carboxamide], for which the 50% inhibitory concentration (IC50) is 0.1 to 1 µM. Take `COc1ncnc(OC)c1C(=O)Nc1nc2c(s1)C1(COC1)Oc1cc(C(C)C)ccc1-2` [compound 135, N-(7-isopropylspiro[chromeno[4,3-d]thiazole-4,3′-oxetan]-2-yl)-4,6-dimethoxypyrimidine-5-carboxamide]: the IC50 was less than 0.1 µM.

As a reminder, the IC50 is the concentration needed to halve the response being measured.
